The values below come from patent US5631230A, “Receptor selective analogues of cholecystokinin-8” (priority 1994, dated 1997).

For assay [1], the target named is T1, [^125 I] CCK-8 binding sites (CCK receptor), Rat Brain (Rattus norvegicus, UniProt P30553).
T1 construct: from tissue; host or cells: rat brain
T1 sequence (P30553 1-452): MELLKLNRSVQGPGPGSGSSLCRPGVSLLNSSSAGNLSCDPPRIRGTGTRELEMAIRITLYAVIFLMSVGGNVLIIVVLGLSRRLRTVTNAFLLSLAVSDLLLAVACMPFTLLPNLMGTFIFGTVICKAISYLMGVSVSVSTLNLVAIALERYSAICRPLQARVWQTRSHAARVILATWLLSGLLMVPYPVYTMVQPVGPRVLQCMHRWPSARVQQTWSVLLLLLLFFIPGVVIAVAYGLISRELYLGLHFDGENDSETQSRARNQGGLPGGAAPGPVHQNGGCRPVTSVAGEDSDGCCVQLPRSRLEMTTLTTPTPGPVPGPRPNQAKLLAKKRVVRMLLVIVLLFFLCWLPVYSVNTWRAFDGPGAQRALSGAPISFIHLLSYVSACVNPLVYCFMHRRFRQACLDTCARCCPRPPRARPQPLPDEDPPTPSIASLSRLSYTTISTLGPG
The assay can be described thus: Inhibition of [125I] CCK-8 binding, rat brain. The settings on record: for Ratio Pancreas/Brain Rat: IC50 pancreas / IC50 brain.

The target in assay [2] is T2, [^125 I] CCK-8 binding sites (CCK receptor), Rat Pancreas (Rattus norvegicus, UniProt P30551).
T2 construct: from tissue; host or cells: rat pancreas
T2 sequence (P30551 1-444): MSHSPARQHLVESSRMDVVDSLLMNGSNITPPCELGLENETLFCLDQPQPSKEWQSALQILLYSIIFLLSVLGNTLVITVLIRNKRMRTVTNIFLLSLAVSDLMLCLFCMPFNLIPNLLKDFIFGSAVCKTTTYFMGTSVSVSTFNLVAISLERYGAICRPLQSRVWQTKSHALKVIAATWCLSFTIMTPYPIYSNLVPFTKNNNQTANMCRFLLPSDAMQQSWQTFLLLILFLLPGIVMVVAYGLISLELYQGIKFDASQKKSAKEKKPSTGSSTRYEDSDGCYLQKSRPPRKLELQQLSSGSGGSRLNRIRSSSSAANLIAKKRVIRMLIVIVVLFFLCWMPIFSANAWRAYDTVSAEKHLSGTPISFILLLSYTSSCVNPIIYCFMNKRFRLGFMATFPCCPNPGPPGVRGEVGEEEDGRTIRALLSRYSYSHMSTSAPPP
The assay can be described thus: Inhibition of [125I] CCK-8 binding, rat pancreas.

The target in assay [3] is T3, [^125 I] CCK-8 binding sites (CCK receptor), Guinea Pig Pancreas (Cavia porcellus, UniProt Q63931).
T3 construct: from tissue; host or cells: guinea pig pancreas
T3 sequence (Q63931 1-430): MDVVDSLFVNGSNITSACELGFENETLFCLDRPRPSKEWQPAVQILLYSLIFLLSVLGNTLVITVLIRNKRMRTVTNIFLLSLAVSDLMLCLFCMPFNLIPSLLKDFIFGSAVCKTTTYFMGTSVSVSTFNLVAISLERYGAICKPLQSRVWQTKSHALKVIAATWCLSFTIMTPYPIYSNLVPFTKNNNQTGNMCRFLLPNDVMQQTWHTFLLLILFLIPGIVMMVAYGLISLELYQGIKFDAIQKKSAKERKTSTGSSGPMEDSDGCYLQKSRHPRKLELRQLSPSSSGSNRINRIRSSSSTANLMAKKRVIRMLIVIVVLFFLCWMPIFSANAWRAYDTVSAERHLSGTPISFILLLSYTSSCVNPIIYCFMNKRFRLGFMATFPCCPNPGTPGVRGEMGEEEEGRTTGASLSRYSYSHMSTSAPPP
The assay can be described thus: Inhibition of [125I] CCK-8 binding, guinea pig pancreas. The settings on record: read-out: Guinea Pig Pancreas IV50.

Assay [4] concerns [^125 I] CCK-8 binding sites (CCK receptor), Guinea Pig Brain. The assay is described as follows: Inhibition of [125I] CCK-8 binding, guinea pig brain. To be noted: for Ratio Pancreas/Brain (Guinea Pig): value in brackets, IC50 pancreas / IC50 brain; for IC50: inhibition of [125I] CCK-8 binding, guinea pig brain.

Non-standard residues stand in square brackets, D forms with d. Residues, ends and D or L forms follow the SMILES beside them. *: point of attachment. sY = N[C@@H](Cc1ccc(OS(=O)(=O)O)cc1)C(=O)O; X1 = O=C(O)C[C@H](NS(=O)(=O)O)C(=O)*; NMeNle = CCCC[C@H](NC)C(=O)O; Nle = CCCC[C@H](N)C(=O)O Some results are limits rather than exact numbers.

Take `CCCC[C@H](NC(=O)[C@H](Cc1ccc(O)cc1)NC(=O)[C@@H](N)CC(=O)O)C(=O)NCC(=O)N[C@@H](Cc1c[nH]c2ccccc12)C(=O)N(C)[C@@H](CCCC)C(=O)N[C@@H](CC(=O)O)C(=O)N[C@@H](Cc1ccccc1)C(N)=O` [Compound 5, H-Asp-Tyr-Nle-Gly-Trp-N-MeNle-AsP-Phe-NH2]: in assay [1], the IC50 was found to be 976 nM and the “Ratio Pancreas/Brain Rat” value is 0.17. In assay [2], this compound showed an IC50 of 170 nM.

As for `CCCC[C@H](NC(=O)[C@H](Cc1c[nH]c2ccccc12)NC(=O)CNC(=O)[C@H](CCCC)N(C)C(=O)[C@H](Cc1ccc(O)cc1)NC(=O)[C@@H](N)CC(=O)O)C(=O)N[C@@H](CC(=O)O)C(=O)N[C@@H](Cc1ccccc1)C(N)=O` [Compound 4, H-Asp-Tyr-N-MeNle-Gly-Trp-Nle-Asp-Phe-NH2], in assay [1], the IC50 was 1.45 nM and the “Ratio Pancreas/Brain Rat” value came to 32.2. Also, in assay [2], the IC50 came out at 46.7 nM.

As for `CCCC[C@H](NC(=O)[C@H](Cc1ccc(OS(=O)(=O)O)cc1)NC(=O)[C@H](CC(=O)O)NS(=O)(=O)O)C(=O)NCC(=O)N[C@@H](Cc1c[nH]c2ccccc12)C(=O)N(C)[C@@H](CCCC)C(=O)N[C@@H](CC(=O)O)C(=O)N[C@@H](Cc1ccccc1)C(N)=O` [Compound 10, H-Asp-Tyr-Nle-Gly-Trp-N-MeNle-Asp-Phe-NH2 -Bis-SO3θ] (X1-[sY][Nle]GW[NMeNle]DF-NH2; N-terminus assumed), the IC50 in assay [1] was determined as 0.496 nM; in assay [2], 1.39 nM. Besides, the “Ratio Pancreas/Brain Rat” value in assay [1] was 2.81.

Take `CCCC[C@@H](C(=O)N[C@@H](CC(=O)O)C(=O)N[C@@H](Cc1ccccc1)C(N)=O)N(C)C(=O)[C@H](Cc1c[nH]c2ccccc12)NC(=O)CN` [Compound 1, H-Gly-Trp-N-MeNle-Asp-Phe-NH2] (H-GW[NMeNle]DF-NH2): the IC50 is 4.67 nM in assay [1], 8000 nM in assay [3] and greater than 10000 nM in assay [2].

As to `CCCC[C@@H](C(=O)N[C@@H](CC(=O)O)C(=O)N[C@@H](Cc1ccccc1)C(N)=O)N(C)C(=O)[C@H](Cc1c[nH]c2ccccc12)NC(=O)CNC(=O)[C@H](CCCC)N(C)C(=O)[C@H](Cc1ccc(O)cc1)NC(=O)[C@@H](N)CC(=O)O` [Compound 2, H-Asp-Tyr-N-MeNle-Gly-Trp-N-MeNle-Asp-Phe-NH2], the IC50 in assay [1] came to 0.131 nM; in assay [3], 958 nM; in assay [2], 1030 nM; in assay [4] it was 0.23 nM. In addition, in assay [1], the “Ratio Pancreas/Brain Rat” value was 7,863. Besides, the “Ratio Pancreas/Brain (Guinea Pig)” value in assay [4] is given as 4146.

In the case of `CCCC[C@H](NC(=O)[C@H](Cc1c[nH]c2ccccc12)NC(=O)CNC(=O)[C@H](NC(=O)[C@H](Cc1ccc(O)cc1)NC(=O)[C@@H](N)CC(=O)O)C(C)C)C(=O)N[C@@H](CC(=O)O)C(=O)N[C@@H](Cc1ccccc1)C(N)=O` [Compound 7, H-Asp-Tyr-D-Val-Gly-Trp-Nle-Asp-Phe-NH2], the IC50 in assay [1] amounted to 1.26 nM; in assay [2], 521 nM. Also, the “Ratio Pancreas/Brain Rat” value in assay [1] was found to be 413.

In the case of `CCCC[C@H](NC(=O)[C@H](Cc1c[nH]c2ccccc12)NC(=O)CNC(=O)[C@@H](NC(=O)[C@H](Cc1ccc(O)cc1)NC(=O)[C@@H](N)CC(=O)O)C(C)C)C(=O)N[C@@H](CC(=O)O)C(=O)N[C@@H](Cc1ccccc1)C(N)=O` [Compound 6, H-Asp-Tyr-Val-Gly-Trp-Nle-Asp-Phe-NH2], in assay [1], the IC50 came to 0.318 nM and the “Ratio Pancreas/Brain Rat” value is given as 33.5. For the same compound, the IC50 in assay [2] was 10.6 nM.

As for `CCCC[C@H](NC(=O)[C@H](Cc1c[nH]c2ccccc12)NC(=O)CNC(=O)[C@H](NC(=O)[C@H](Cc1ccc(OS(=O)(=O)O)cc1)NC(=O)[C@H](CC(=O)O)NS(=O)(=O)O)C(C)C)C(=O)N[C@@H](CC(=O)O)C(=O)N[C@@H](Cc1ccccc1)C(N)=O` [Compound 12, H-Asp-Tyr-D-Val-Gly-Trp-Nle-Asp-Phe-NH2 Bis-SO3 θ] (X1-[sY][dV]GW[Nle]DF-NH2; N-terminus and C-terminus assumed), in assay [1], the “Ratio Pancreas/Brain Rat” value turned out to be 39.5.

Regarding `CCCC[C@H](NC(=O)[C@H](Cc1c[nH]c2ccccc12)NC(=O)CNC(=O)[C@H](CCCC)N(C)C(=O)[C@H](Cc1ccc(OS(=O)(=O)O)cc1)NC(=O)[C@H](CC(=O)O)NS(=O)(=O)O)C(=O)N[C@@H](CC(=O)O)C(=O)N[C@@H](Cc1ccccc1)C(N)=O` [Compound 9, H-Asp-Tyr-N-MeNle-Gly-Trp-Nle-Asp-Phe-NH2 Bis-SO3 θ] (X1-[sY][NMeNle]GW[Nle]DF-NH2; N-terminus assumed), the IC50 in assay [3] was determined as 29100 nM; in assay [4], 3.19 nM. Moreover, the “Ratio Pancreas/Brain (Guinea Pig)” value in assay [4] was 9099.

As to `CCCC[C@H](NC(=O)[C@H](Cc1c[nH]c2ccccc12)NC(=O)CNC(=O)[C@@H](NC(=O)[C@H](Cc1ccc(OS(=O)(=O)O)cc1)NC(=O)[C@H](CC(=O)O)NS(=O)(=O)O)C(C)C)C(=O)N[C@@H](CC(=O)O)C(=O)N[C@@H](Cc1ccccc1)C(N)=O` [Compound 11, H-Asp-Tyr-Val-Gly-Trp-Nle-Asp-Phe-NH2 Bis-SO3 θ] (X1-[sY]VGW[Nle]DF-NH2; N-terminus and C-terminus assumed), the “Ratio Pancreas/Brain Rat” value in assay [1] is reported as 33.46.

In assay [2], `CSCC[C@H](NC(=O)[C@H](Cc1ccc(OS(=O)(=O)O)cc1)NC(=O)[C@@H](N)CC(=O)O)C(=O)NCC(=O)N[C@@H](Cc1c[nH]c2ccccc12)C(=O)N[C@@H](CCSC)C(=O)N[C@@H](CC(=O)O)C(=O)N[C@@H](Cc1ccccc1)C(N)=O` [CCK-8, Asp-Tyr-(SO3^-)-Met-Gly-Trp-Met-Asp-Phe-NH2, reference compound] gave an IC50 of 0.129 nM.

On to `CCCC[C@@H](C(=O)N[C@@H](CC(=O)O)C(=O)N[C@@H](Cc1ccccc1)C(N)=O)N(C)C(=O)[C@H](Cc1c[nH]c2ccccc12)NC(=O)CNC(=O)[C@H](CCCC)N(C)C(=O)[C@H](Cc1ccc(OS(=O)(=O)O)cc1)NC(=O)[C@H](CC(=O)O)NS(=O)(=O)O` [Compound 3, H-Asp-Tyr-N-MeNle-Gly-Trp-N-MeNle-Asp-Phe-NH2 Bis-SO3^θ] (X1-[sY][NMeNle]GW[NMeNle]DF-NH2; N-terminus assumed), for which, in assay [1], the IC50 came to 1.41 nM and the “Ratio Pancreas/Brain Rat” value was found to be 0.29. Besides, in assay [2], the IC50 was 0.46 nM.

Consider `CCCC[C@H](NC(=O)[C@H](Cc1ccc(O)c(O)c1)NC(=O)[C@@H](N)CC(=O)O)C(=O)NCC(=O)N[C@@H](Cc1c[nH]c2ccccc12)C(=O)N[C@@H](CCCC)C(=O)N[C@@H](CC(=O)O)C(=O)N[C@@H](Cc1ccccc1)C(N)=O` [Compound 8, H-Asp-Dopa-Nle-Gly-Trp-Nle-Asp-Phe-NH2], for which, in assay [1], the IC50 turned out to be 9.7 nM and the “Ratio Pancreas/Brain Rat” value was 0.0010. For the same compound, in assay [2], the IC50 amounted to 0.975 nM.
